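Cultured in 96-well plates, cells were exposed to test compound for 48 hours across five concentrations. Definition used: TGI = concentration required for complete inhibition of growth.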
What was measured:
Assay in all cases: DTP human tumour cell line panel, 48 h
[1] = test system: SR leukemia
[2] = test system: SK-MEL-5 melanoma
[3] = test system: NCI-H522 lung
[4] = test system: OVCAR-8 ovarian
[5] = test system: A549 NSCLC
[6] = test system: COLO 205 colon
[7] = test system: K-562 leukemia
[8] = test system: DU-145 prostate
[9] = test system: SNB-19 CNS
[10] = test system: LOX IMVI melanoma
[11] = test system: U251 CNS
[12] = test system: SF-295 CNS
[13] = test system: MALME-3M melanoma
[14] = test system: CCRF-CEM leukemia
[15] = test system: SF-268 CNS
[16] = test system: 786-0 renal
[17] = test system: MCF7 breast
[18] = test system: UACC-257 melanoma

Compound: O=C1/C(=C\c2cccc(Oc3ccccc3)c2)SC(c2ccccc2)N1Cc1ccccc1 (stereo not drawn)
- TGI [1]: 56.8 µM
- TGI [2]: 28 µM
- TGI [3]: 46.1 µM
- TGI [4]: 68.9 µM
- TGI [5]: > 100 µM
- TGI [6]: 22 µM
- TGI [7]: > 100 µM
- TGI [8]: > 100 µM
- TGI [9]: 92.8 µM
- TGI [10]: 32 µM
- TGI [11]: 64.4 µM
- TGI [12]: > 100 µM
- TGI [13]: 57.7 µM
- TGI [14]: 45.5 µM
- TGI [15]: > 100 µM
- TGI [16]: > 100 µM
- TGI [17]: > 100 µM
- TGI [18]: 87.9 µM

Compound: CN(C)c1ccc(C2=C([O-])c3cc(-[n+]4ccccc4)ccc3C2=O)cc1
- TGI [1]: > 100 µM
- TGI [2]: > 100 µM
- TGI [3]: > 100 µM
- TGI [4]: > 100 µM
- TGI [5]: > 100 µM
- TGI [6]: > 100 µM
- TGI [7]: > 100 µM
- TGI [8]: > 100 µM
- TGI [9]: > 100 µM
- TGI [10]: > 100 µM
- TGI [11]: > 100 µM
- TGI [12]: > 100 µM
- TGI [13]: > 100 µM
- TGI [14]: > 100 µM
- TGI [15]: > 100 µM
- TGI [16]: > 100 µM
- TGI [17]: > 100 µM
- TGI [18]: > 100 µM

Compound: CCOC(=O)n1ccc2c(C(=O)OC)c(C(=O)OC)cc(/C(=C/C(=O)OC)C(=O)OC)c21
- TGI [1]: > 100 µM
- TGI [2]: > 100 µM
- TGI [3]: > 100 µM
- TGI [4]: > 100 µM
- TGI [5]: > 100 µM
- TGI [6]: > 100 µM
- TGI [7]: > 100 µM
- TGI [8]: > 100 µM
- TGI [9]: > 100 µM
- TGI [10]: > 100 µM
- TGI [11]: > 100 µM
- TGI [12]: > 100 µM
- TGI [13]: > 100 µM
- TGI [14]: > 100 µM
- TGI [15]: > 100 µM
- TGI [16]: > 100 µM
- TGI [17]: > 100 µM
- TGI [18]: > 100 µM

Compound: COC(=O)C(Cc1ccccc1)NP(=O)(O)OCC1OC(n2ccc(N)nc2=O)C(O)C1O (stereo not drawn)
- TGI [1]: > 100 µM
- TGI [2]: > 100 µM
- TGI [3]: > 100 µM
- TGI [4]: > 100 µM
- TGI [5]: > 100 µM
- TGI [6]: > 100 µM
- TGI [7]: > 100 µM
- TGI [8]: > 100 µM
- TGI [9]: > 100 µM
- TGI [10]: > 100 µM
- TGI [11]: > 100 µM
- TGI [12]: > 100 µM
- TGI [13]: > 100 µM
- TGI [14]: > 100 µM
- TGI [15]: > 100 µM
- TGI [16]: > 100 µM
- TGI [17]: > 100 µM
- TGI [18]: > 100 µM

Compound: O=C(/C=C/c1ccc(O)c(O)c1)O[C@H]1CCCC[C@@H]1OC(=O)/C=C/c1ccc(O)c(O)c1
- TGI [1]: > 100 µM
- TGI [2]: 21.4 µM
- TGI [3]: 20.8 µM
- TGI [4]: 57.1 µM
- TGI [5]: > 100 µM
- TGI [6]: 56.2 µM
- TGI [7]: > 100 µM
- TGI [8]: 41.8 µM
- TGI [9]: 73.8 µM
- TGI [10]: 17 µM
- TGI [11]: > 100 µM
- TGI [12]: 33.3 µM
- TGI [13]: 32.6 µM
- TGI [14]: 61 µM
- TGI [15]: 38.8 µM
- TGI [16]: 46 µM
- TGI [17]: 70.2 µM
- TGI [18]: 77 µM

Compound: Oc1c(O)c(Cc2ccccc2)c(Cc2ccccc2)c(Cc2ccccc2)c1Cc1ccccc1
- TGI [1]: > 10 µM
- TGI [2]: > 10 µM
- TGI [3]: > 10 µM
- TGI [4]: > 10 µM
- TGI [5]: > 10 µM
- TGI [6]: > 10 µM
- TGI [7]: > 10 µM
- TGI [8]: > 10 µM
- TGI [9]: > 10 µM
- TGI [10]: > 10 µM
- TGI [11]: > 10 µM
- TGI [12]: > 10 µM
- TGI [13]: > 10 µM
- TGI [14]: > 10 µM
- TGI [15]: > 10 µM
- TGI [16]: > 10 µM
- TGI [17]: > 10 µM
- TGI [18]: > 10 µM

— PubChem BioAssay (NCI)
